For one test, the system named is aphid larvae. The test is described as follows: Imidacloprid concentration-effect mortality curve in aphid larvae (LC50). Type of test: in vivo. To be noted: Acyrthosiphon pisum, artificial nutrition. The procedure: Mortality tests were performed using an artificial nutrition system comprising a PVC tube closed by a Parafilm® at each end, in which 5 adult aphids or 20 larvae were deposited. At one of the ends of the artificial nutrition “cell”, 200 μL of nutrient solution comprising the solution to be tested (insecticide, dsRNA) were deposited on the Parafilm then covered with a 2nd Parafilm to allow the aphids to suck the solution for feeding by piercing the Parafilm with their rostrum. The cells were placed at 20° C. in a chamber with a photoperiod of 16 h. To determine the concentration of imidacloprid leading to 50% mortality (LC50) in the aphid larvae, a concentration-effect curve was plotted at 48 h and 72 h from a range of imidacloprid concentrations from 10^−6 to 10 μg/mL.
The mortality curves were obtained with GraphPad Prism software in the form of a non-linear regression and adjusted with the Hill equation,
[formula] • where Y is the percent mortality observed at the concentration value X, m and M are respectively the minimum and maximum values of the curve, nH is the Hill coefficient and LC50 is the concentration of imidacloprid causing 50% mortality. The results are expressed as a mean±S.E.M. Type of Effect of the dsRNAs

The test system of test [1] is cockroach Periplaneta americana. The test is described as follows: Mortality after acute imidacloprid intoxication in cockroaches exposed to a sublethal dose for 30 days. Type of test: in vivo. The note with it: 0.025 μg/cockroach/day for 30 days, re-exposure 96 h.

≈ marks a conversion by molar mass, not a printed value.

As a reminder, the LC50 is the concentration that kills 50% of the test population. A lower LC50 goes with a more lethal substance.

As for `O=[N+]([O-])NC1=NCCN1Cc1ccc(Cl)nc1` [imidacloprid], the figures for the LC50 in the test with aphid larvae (48 h) and in the test on aphid larvae (72 h) were 8 ng/mL (≈ 0.0313 µM) and 4 ng/mL (≈ 0.0156 µM), respectively. Besides, the “effect of sublethal intoxication for 30 days on sensitivity of cockroaches to acute intoxication” value in test [1] was “loss of sensitivity”.

Values taken from patent publication US20250338857A1, “USE OF INTERFERING RNAS DIRECTED AGAINST THE CHOLINERGIC SYSTEM FOR CONTROLLING INSECT PESTS” (priority 2022, published 2025).
